Experimental data from patent US20200390100A1, “SUBSTITUTED N-HETEROCYCLYL- AND N-HETEROARYL-TETRAHYDROPYRIMIDINONES AND THE SALTS THEREOF, AND THE USE OF SAME AS HERBICIDAL ACTIVE SUBSTANCES” (Bayer Aktiengesellschaft, priority 2017, published 2020).

Target: T1, photosystem II (PS II) (Spinacia oleracea, UniProt P69560)
T1 construct: the chloroplasts were osmotically ruptured and the thylakoid membranes were then obtained by centrifugation; from tissue; host or cells: fresh spinach leaves; thylakoid membrane preparation from isolated chloroplasts
Test: Measurement of PS II activity in thylakoid membranes (DCPIP reduction)
Format: biochemical, spinach
Conditions: PS II activity in spinach thylakoid membranes, Table E1; read-out: Effect
In short: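 Thylakoid membranes from osmotically ruptured spinach chloroplasts in 50 mM phosphate pH 6.8, 10 mM KCl; compounds added from 100 μM DMSO solution (2.5% DMSO final), 120 μM DCPIP final. DCPIP reduction under light tracked as absorbance decrease at 595 nm over 10 min at 22 °C; % inhibition binned, metribuzin as plate standard.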

inhibition at 100 µM: 70 to 90%
Structure (SMILES): CC1CC(O)N(c2cc(C(C)(C)C)on2)C(=O)N1C (stereo not shown) [I.41-162, 1-(5-tert-Butyl-1,2-oxazol-3-yl)-6-hydroxy-3,4-dimethyltetrahydropyrimidin-2(1H)-one]
